From ChEMBL document CHEMBL3351764, “Design, synthesis and biological activity of flavonoid derivatives as selective agonists for neuromedin U 2 receptor” (Bioorg Med Chem, 2014)
Active and inactive are the calls of the source.

Key:
[1] = target: Melanocyte-stimulating hormone receptor (Homo sapiens) (UniProt Q01726); experiment: Agonist activity at human MC1 receptor at 100 uM to 5 mM
[2] = target: Adrenocorticotropic hormone receptor (Homo sapiens) (UniProt Q01718); experiment: Agonist activity at human MC2 receptor at 100 uM to 5 mM
Sequence of Adrenocorticotropic hormone receptor (Homo sapiens) (Q01718 whole entry): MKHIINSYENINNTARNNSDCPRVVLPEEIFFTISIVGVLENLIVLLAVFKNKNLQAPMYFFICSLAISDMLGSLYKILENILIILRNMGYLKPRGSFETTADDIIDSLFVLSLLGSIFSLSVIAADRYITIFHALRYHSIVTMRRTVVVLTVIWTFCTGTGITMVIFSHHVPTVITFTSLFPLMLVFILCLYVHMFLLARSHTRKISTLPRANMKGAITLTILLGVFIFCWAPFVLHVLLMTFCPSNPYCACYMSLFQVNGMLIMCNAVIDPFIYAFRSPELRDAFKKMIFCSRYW

[3] = target: Melanocortin receptor 3 (Homo sapiens) (UniProt P41968); experiment: Agonist activity at human MC3 receptor at 100 uM to 5 mM
Sequence of Melanocortin receptor 3 (Homo sapiens) (P41968 whole entry): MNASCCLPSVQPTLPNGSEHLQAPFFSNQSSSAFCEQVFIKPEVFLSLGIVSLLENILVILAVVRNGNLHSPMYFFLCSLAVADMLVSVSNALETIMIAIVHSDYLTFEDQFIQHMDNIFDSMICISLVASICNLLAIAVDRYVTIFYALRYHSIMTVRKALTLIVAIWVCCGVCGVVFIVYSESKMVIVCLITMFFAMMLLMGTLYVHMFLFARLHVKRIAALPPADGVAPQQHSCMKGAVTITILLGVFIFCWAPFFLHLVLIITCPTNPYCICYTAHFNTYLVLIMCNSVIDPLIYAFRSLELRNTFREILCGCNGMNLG

[4] = target: Melanocyte-stimulating hormone receptor (Mus musculus) (UniProt Q01727); experiment: Agonist activity at mouse MC1 receptor at 100 uM to 5 mM
Sequence of Melanocyte-stimulating hormone receptor (Mus musculus) (Q01727 whole entry, looked up): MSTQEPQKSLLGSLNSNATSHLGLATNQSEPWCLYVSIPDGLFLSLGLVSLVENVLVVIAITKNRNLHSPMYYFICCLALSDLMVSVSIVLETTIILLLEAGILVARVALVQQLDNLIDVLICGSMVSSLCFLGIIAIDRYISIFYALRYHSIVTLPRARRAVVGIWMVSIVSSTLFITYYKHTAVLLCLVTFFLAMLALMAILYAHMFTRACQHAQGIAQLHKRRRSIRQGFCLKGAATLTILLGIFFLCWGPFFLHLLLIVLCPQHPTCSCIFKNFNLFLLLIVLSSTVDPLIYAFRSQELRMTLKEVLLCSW

[5] = target: Melanocortin receptor 3 (Mus musculus) (UniProt P33033); experiment: Agonist activity at mouse MC3 receptor at 100 uM to 5 mM
Sequence of Melanocortin receptor 3 (Mus musculus) (P33033 whole entry): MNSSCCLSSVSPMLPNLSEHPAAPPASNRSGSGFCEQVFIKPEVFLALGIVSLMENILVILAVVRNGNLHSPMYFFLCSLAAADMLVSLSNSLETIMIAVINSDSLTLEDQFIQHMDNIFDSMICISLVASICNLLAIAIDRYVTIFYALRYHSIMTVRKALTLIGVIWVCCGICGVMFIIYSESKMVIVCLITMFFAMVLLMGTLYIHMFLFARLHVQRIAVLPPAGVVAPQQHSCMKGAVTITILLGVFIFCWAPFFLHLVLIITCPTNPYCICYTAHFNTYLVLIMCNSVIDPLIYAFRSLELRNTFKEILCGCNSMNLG

[6] = target: Melanocortin receptor 5 (Mus musculus) (UniProt P41149); experiment: Agonist activity at mouse MC5 receptor at 100 uM to 5 mM
Sequence of Melanocortin receptor 5 (Mus musculus) (P41149 whole entry): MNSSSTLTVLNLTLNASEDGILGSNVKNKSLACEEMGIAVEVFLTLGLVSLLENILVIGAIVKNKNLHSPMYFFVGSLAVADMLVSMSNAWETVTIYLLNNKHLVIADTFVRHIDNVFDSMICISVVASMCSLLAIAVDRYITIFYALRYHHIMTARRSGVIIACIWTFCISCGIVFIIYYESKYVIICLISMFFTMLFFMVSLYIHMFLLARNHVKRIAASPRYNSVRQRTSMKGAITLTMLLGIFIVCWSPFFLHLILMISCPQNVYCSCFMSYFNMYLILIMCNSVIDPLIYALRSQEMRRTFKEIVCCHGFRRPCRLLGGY

[7] = target: T1, Neuromedin-U receptor 1 (Homo sapiens) (UniProt Q9HB89); experiment: Agonist activity at human NMU1 receptor at 100 uM to 5 mM
T1 sequence (whole entry): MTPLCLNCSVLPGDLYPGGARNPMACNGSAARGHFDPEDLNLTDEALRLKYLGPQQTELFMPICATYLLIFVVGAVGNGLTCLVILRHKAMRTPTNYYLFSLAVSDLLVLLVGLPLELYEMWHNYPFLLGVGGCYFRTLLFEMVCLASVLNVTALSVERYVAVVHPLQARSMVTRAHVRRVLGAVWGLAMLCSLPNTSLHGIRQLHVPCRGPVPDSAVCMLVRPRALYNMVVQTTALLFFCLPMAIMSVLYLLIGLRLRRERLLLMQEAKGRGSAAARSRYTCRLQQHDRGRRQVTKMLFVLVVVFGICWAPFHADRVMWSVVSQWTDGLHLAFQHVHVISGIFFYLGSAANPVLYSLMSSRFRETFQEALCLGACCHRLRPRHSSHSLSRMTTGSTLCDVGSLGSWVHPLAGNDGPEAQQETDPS

[8] = target: T2, Orexin receptor type 2 (Homo sapiens) (UniProt O43614); experiment: Agonist activity at human orexin 2 receptor at 100 uM to 5 mM
T2 sequence (whole entry): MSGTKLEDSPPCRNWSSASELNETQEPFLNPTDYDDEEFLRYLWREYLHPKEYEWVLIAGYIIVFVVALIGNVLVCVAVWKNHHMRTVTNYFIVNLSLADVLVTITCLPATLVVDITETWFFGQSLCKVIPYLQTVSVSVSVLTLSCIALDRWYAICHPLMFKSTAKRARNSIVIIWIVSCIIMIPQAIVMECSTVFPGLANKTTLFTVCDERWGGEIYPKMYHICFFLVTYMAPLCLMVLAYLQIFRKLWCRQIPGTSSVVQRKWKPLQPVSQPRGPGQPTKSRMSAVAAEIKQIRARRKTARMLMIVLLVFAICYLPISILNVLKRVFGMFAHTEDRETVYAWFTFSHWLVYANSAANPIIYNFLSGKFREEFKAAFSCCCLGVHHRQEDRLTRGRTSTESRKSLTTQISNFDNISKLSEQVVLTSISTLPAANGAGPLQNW

[9] = target: Melanin-concentrating hormone receptor 1 (Homo sapiens) (UniProt Q99705); experiment: Agonist activity at human MCH1 receptor at 100 uM to 5 mM
Sequence of Melanin-concentrating hormone receptor 1 (Homo sapiens) (Q99705 whole entry): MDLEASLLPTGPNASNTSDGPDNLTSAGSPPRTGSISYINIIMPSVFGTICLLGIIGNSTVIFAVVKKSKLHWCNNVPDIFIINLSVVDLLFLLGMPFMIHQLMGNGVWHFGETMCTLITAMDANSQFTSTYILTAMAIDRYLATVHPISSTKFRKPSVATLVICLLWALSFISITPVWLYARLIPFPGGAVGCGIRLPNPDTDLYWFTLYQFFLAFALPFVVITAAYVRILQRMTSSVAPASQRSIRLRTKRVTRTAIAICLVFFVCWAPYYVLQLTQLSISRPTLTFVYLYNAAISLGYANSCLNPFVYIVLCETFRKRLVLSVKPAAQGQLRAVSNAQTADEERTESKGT

[10] = target: D(1B) dopamine receptor (Homo sapiens) (UniProt P21918); experiment: Agonist activity at human D5 receptor at 100 uM to 5 mM
Sequence of D(1B) dopamine receptor (Homo sapiens) (P21918 whole entry): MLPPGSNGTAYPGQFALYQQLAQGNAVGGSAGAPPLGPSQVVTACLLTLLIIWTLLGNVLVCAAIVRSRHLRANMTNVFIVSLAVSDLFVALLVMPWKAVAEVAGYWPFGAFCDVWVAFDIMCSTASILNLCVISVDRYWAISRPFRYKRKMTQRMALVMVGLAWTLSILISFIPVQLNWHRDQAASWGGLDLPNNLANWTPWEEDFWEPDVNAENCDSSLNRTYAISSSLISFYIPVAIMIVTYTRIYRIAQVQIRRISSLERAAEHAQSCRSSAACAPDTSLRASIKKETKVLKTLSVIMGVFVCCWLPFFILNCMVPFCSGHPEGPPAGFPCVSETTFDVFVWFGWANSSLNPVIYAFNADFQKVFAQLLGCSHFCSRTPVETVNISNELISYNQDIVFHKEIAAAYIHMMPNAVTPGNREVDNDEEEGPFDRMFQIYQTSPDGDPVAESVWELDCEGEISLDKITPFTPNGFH

[11] = target: T3, Parathyroid hormone/parathyroid hormone-related peptide receptor (Homo sapiens) (UniProt Q03431); experiment: Agonist activity at human PTH receptor at 100 uM to 5 mM
T3 sequence (whole entry): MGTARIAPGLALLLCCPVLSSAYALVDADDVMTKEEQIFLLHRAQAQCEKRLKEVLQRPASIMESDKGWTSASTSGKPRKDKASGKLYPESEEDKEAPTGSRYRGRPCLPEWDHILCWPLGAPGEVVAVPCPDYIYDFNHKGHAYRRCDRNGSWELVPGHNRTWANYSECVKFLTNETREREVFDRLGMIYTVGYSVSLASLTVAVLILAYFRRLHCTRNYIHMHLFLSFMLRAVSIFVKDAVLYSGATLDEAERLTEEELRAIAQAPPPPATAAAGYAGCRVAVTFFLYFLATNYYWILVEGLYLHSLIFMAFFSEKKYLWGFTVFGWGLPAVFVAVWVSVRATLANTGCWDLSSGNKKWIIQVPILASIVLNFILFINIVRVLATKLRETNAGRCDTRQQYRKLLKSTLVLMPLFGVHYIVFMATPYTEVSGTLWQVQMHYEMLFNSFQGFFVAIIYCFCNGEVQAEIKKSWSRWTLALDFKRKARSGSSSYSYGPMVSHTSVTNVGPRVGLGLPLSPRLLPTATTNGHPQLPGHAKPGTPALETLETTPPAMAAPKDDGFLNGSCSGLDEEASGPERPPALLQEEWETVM

[12] = target: T4, C5a anaphylatoxin chemotactic receptor 1 (Homo sapiens) (UniProt P21730); experiment: Agonist activity at human C5a receptor at 100 uM to 5 mM
T4 sequence (whole entry): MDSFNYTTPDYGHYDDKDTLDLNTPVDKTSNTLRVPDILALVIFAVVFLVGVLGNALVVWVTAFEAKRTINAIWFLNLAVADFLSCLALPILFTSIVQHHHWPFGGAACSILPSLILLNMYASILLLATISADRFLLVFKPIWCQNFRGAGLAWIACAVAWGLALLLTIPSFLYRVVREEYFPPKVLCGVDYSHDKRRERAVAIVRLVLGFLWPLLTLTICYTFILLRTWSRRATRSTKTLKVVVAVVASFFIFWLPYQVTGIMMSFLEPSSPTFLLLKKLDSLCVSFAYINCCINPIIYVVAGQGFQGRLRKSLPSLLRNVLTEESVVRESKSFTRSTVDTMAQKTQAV

[13] = target: T5, Neuropeptide Y receptor type 5 (Homo sapiens) (UniProt Q15761); experiment: Agonist activity at human NPY5 receptor at 100 uM to 5 mM
T5 sequence (whole entry): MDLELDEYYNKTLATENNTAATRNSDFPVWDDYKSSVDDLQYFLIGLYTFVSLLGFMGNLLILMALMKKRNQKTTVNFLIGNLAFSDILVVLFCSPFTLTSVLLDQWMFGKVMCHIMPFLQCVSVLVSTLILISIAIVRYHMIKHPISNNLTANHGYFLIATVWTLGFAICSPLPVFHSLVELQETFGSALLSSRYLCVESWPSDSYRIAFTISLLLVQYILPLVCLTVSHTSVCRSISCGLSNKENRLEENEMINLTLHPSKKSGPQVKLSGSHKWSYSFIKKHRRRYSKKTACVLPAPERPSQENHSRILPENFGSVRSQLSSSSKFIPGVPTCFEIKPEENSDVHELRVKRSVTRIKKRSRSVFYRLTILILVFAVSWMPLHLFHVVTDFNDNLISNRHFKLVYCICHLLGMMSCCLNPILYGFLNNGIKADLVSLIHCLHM

[14] = target: Glucagon receptor (Homo sapiens) (UniProt P47871); experiment: Agonist activity at human Glu receptor at 100 uM to 5 mM
Sequence of Glucagon receptor (Homo sapiens) (P47871 whole entry): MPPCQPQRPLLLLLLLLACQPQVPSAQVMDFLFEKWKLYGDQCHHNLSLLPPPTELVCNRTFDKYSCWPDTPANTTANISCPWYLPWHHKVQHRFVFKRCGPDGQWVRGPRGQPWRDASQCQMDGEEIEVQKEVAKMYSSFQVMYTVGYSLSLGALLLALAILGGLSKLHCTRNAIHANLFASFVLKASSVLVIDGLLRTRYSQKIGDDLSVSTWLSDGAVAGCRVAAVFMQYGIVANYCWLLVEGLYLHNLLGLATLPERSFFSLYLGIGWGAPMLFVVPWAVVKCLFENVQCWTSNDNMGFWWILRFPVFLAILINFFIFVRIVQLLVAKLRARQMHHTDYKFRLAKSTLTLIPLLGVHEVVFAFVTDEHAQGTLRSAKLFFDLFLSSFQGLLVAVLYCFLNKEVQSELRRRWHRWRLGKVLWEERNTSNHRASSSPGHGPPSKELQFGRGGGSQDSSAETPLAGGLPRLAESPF

Measured: Activity

Sequence of Melanocyte-stimulating hormone receptor (Homo sapiens) (Q01726 whole entry, looked up): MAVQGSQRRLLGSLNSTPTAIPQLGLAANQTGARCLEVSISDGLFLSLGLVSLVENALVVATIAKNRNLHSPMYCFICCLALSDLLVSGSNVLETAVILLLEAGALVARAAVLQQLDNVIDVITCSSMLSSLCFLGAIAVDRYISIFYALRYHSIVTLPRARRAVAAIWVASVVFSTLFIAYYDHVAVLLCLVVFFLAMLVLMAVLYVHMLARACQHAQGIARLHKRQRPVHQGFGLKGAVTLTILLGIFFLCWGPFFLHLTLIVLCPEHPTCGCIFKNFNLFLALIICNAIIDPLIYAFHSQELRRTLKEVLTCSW

COc1ccc(C2C=Cc3ccccc3O2)cc1 (racemic)
inactive: [1] | [2] | [3] | [4] | [5] | [6] | [7] | [8] | [9] | [10] | [11] | [12] | [13] | [14]

COc1ccc(-c2oc3ccccc3c(=O)c2O)cc1O
inactive: [1] | [2] | [3] | [4] | [5] | [6] | [7] | [8] | [9] | [10] | [11] | [12] | [13] | [14]

O=c1c(O)c(-c2c(F)ccc(F)c2Cl)oc2ccccc12
inactive: [1] | [2] | [3] | [4] | [5] | [6] | [7] | [8] | [9] | [10] | [11] | [12] | [13] | [14]

COc1cccc(-c2oc3ccccc3c(=O)c2O)c1
inactive: [1] | [2] | [3] | [4] | [5] | [6] | [7] | [8] | [9] | [10] | [11] | [12] | [13] | [14]

CCN(CC)c1ccc(-c2oc3ccccc3c(=O)c2O)cc1
inactive: [1] | [2] | [3] | [4] | [5] | [6] | [7] | [8] | [9] | [10] | [11] | [12] | [13] | [14]

Fc1ccccc1C1C=Cc2ccccc2O1 (racemic)
inactive: [1] | [2] | [3] | [4] | [5] | [6] | [7] | [8] | [9] | [10] | [11] | [12] | [13] | [14]

O=c1cc(-c2ccc(O)cc2)oc2ccccc12
inactive: [1] | [2] | [3] | [4] | [5] | [6] | [7] | [8] | [9] | [10] | [11] | [12] | [13] | [14]

COc1c(-c2cc(Br)ccc2F)oc2ccccc2c1=O
inactive: [1] | [2] | [3] | [4] | [5] | [6] | [7] | [8] | [9] | [10] | [11] | [12] | [13] | [14]
